Values quoted from earlier work in article PMC11054727 (Viruses, 2024).
Where two headings read alike, the source gives them in different places.

Columns and labels:
SARS-CoV-2 [1] = conditions: cited from earlier work
SARS-CoV-2 [2] = test system: SARS-CoV-2; set-up: method as in ref 23; conditions: Table S1, experimental antiviral activity; read-out: Observed EC50; cited from earlier work
SARS-CoV-2 [3] = conditions: cited from earlier work; remark: listed apart in the source
SARS-CoV-2 Spike = conditions: read-out: Spike-mediated fusion activity EC50; cited from earlier work
[4] = test system: Nsp5 Main protease (Mpro); conditions: cited from earlier work
hCoV-OC43 = test system: hCoV-OC43; set-up: method as in ref 2 = [2]; conditions: read-out: EC50 hCoV-OC43 infections; cited from earlier work
SARS-CoV-2 pseudovirus = test system: SARS-CoV-2 pseudovirus; set-up: method as in ref 48 = [48]; conditions: read-out: EC50 pseudovirus entry; cited from earlier work
[5] = experimental CPE data, read-out: EC50 CPE

Compound: CCOC(=O)c1c(CS(=O)(=O)c2ccc(Cl)cc2)n(C)c2cc(Br)c(O)c(CN(C)C)c12 [1b]
- EC50 (SARS-CoV-2 [1]; [5]): 29.5 µM

Compound: COc1ccc(Nc2cc3nc4ccccc4n(-c4ccc(Cl)cc4)c-3cc2=N)cc1 [6d]
- EC50 (SARS-CoV-2 [2]): 154 µM

Compound: COc1ccc(Nc2cc3nc4ccccc4n(-c4ccc(Cl)cc4)c-3cc2=N)c(OC)c1 [6e]
- EC50 (SARS-CoV-2 [2]): 16.1 µM

Compound: Clc1ccc(Nc2cc3nc4ccccc4n(-c4ccc(Cl)cc4)c-3cc2=NC2CC2)cc1 [7a]
- EC50 (SARS-CoV-2 [2]): 141 µM

Compound: CC(C)N=c1cc2n(-c3ccc(Cl)cc3)c3ccccc3nc-2cc1Nc1ccccc1 [7c]
- EC50 (SARS-CoV-2 [2]): 40.9 µM

Compound: COc1ccc(Nc2cc3nc4ccccc4n(-c4ccc(Cl)cc4)c-3cc2=NC(C)C)cc1 [7g]
- EC50 (SARS-CoV-2 [2]): 16.6 µM

Compound: CC(C)N=c1cc2n(-c3ccc(Cl)cc3)c3ccccc3nc-2cc1Nc1ccc(OC(F)(F)F)cc1 [7i]
- EC50 (SARS-CoV-2 [2]): 10 µM

Compound: CC(C)N=c1cc2n(-c3ccc(Cl)cc3)c3ccccc3nc-2cc1NCc1ccc(Cl)cc1 [7k]
- EC50 (SARS-CoV-2 [2]): 12.4 µM

Compound: CC(C)N=c1cc2n(-c3ccc(F)cc3)c3ccccc3nc-2cc1Nc1ccc(Cl)cc1 [15a]
- EC50 (SARS-CoV-2 [2]): 29.6 µM

Compound: CC(C)N=c1cc2n(-c3ccc(F)cc3)c3ccccc3nc-2cc1Nc1ccc(F)cc1 [15b]
- EC50 (SARS-CoV-2 [2]): 81.1 µM

Compound: COc1ccc(-n2c3cc(=NC(C)C)c(Nc4cccc(F)c4)cc-3nc3ccccc32)cc1 [15f]
- EC50 (SARS-CoV-2 [2]): 14.6 µM

Compound: COc1ccc(-n2c3cc(=NC(C)C)c(Nc4ccc(F)cc4)cc-3nc3ccccc32)cc1 [15g]
- EC50 (SARS-CoV-2 [2]): 10 µM

Compound: COc1ccc(-n2c3cc(=NC4CC4)c(Nc4ccc(F)cc4)cc-3nc3ccccc32)cc1 [15h]
- EC50 (SARS-CoV-2 [2]): 33.1 µM

Compound: C=C[C@@]1(C)CC(=O)[C@]2(O)[C@@]3(C)[C@@H](O)CCC(C)(C)[C@@H]3[C@H](OC(=O)CCN(C)C)[C@H](OC(C)=O)[C@@]2(C)O1.Cl [NKH477]
- extent of inhibition in CPE assays (SARS-CoV-2 [1]; Vero E6 cells): partial inhibitors

Compound: CCC(CC)COC(=O)[C@H](C)N[P@](=O)(OC[C@H]1O[C@@](C#N)(c2ccc3c(N)ncnn23)[C@H](O)[C@@H]1O)Oc1ccccc1 [Remdesivir]
- extent of inhibition in CPE assays (SARS-CoV-2 [1]): full inhibitors

Compound: CCOC(=O)c1c(CSc2ccccc2)n(C)c2cc(Br)c(O)c(CN(C)C)c12 [compound 1, Arbidol]
- EC50 (SARS-CoV-2 [2]): 10 µM
- extent of inhibition in CPE assays (SARS-CoV-2 [1]): partial inhibitor
- EC50 (SARS-CoV-2 [1]; [5]): 5.6 µM

Compound: CC(C)/N=c1\cc2n(-c3ccc(Cl)cc3)c3ccccc3nc-2cc1Nc1ccc(Cl)cc1 [compound 2, Clofazimine]
- extent of inhibition in infection assays (SARS-CoV-2 [3]; Vero E6, Huh7, and Caco-2 cells): full inhibitor
- EC50 (SARS-CoV-2 [3]; same study as hCoV-OC43, read-out: EC50 SARS-CoV-2 infections): 0.01 µM
- EC50 (SARS-CoV-2 Spike): 2.56 µM
- Nsp5 Main protease (Mpro) activity [4]: zero activity
- EC50 (hCoV-OC43): 0.35 µM
- EC50 (SARS-CoV-2 [1]; read-out: consensus EC50 antiviral activity): 0.31 µM

Compound: CN(C)CCOc1ccc(/C(=C(/CCCl)c2ccccc2)c2ccccc2)cc1 [compound 3, Toremifene]
- EC50 (SARS-CoV-2 pseudovirus): 1.92 µM
- EC50 (SARS-CoV-2 [3]; read-out: EC50 live SARS-CoV-2 infections): 3.58 µM

Compound: CC(CN(C)C)CN1c2ccccc2CCc2ccccc21 (stereo not drawn) [trimipramine]
- extent of inhibition in CPE assays (SARS-CoV-2 [1]; Vero E6 cells): partial inhibitors
